Test results: the supplement of paper PMC10307832

How the values were obtained:
Experiment in all cases: relative viability (nuclei count vs DMSO), 5 days (fraction); higher = more cells survive
Omipalisib + Phenformin = compound: COc1ncc(-c2ccc3nccc(-c4ccnnc4)c3c2)cc1NS(=O)(=O)c1ccc(F)cc1F [Omipalisib] + N=C(N)NC(=N)NCCc1ccccc1 [Phenformin] (partner 250 µM)
Method in brief: (§1)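 For relative viability, nuclei counts in treated wells were divided by those in vehicle wells. Lung cancer cell lines had been pin-tool dosed in 1536-well plates the day after seeding and cultured for 5 days, then fixed and stained in one step (final 0.05% Triton X-100, 1% formaldehyde, 1 ug/ml Hoechst) and imaged at 4×. Doses were one drug alone or a fixed anchor-drug dose plus five library-drug doses (not always all listed) in √10 steps, and values are duplicate-plate medians.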

Omipalisib + Lapatinib = compound: COc1ncc(-c2ccc3nccc(-c4ccnnc4)c3c2)cc1NS(=O)(=O)c1ccc(F)cc1F [Omipalisib] + CS(=O)(=O)CCNCc1ccc(-c2ccc3ncnc(Nc4ccc(OCc5cccc(F)c5)c(Cl)c4)c3c2)o1 [Lapatinib] (partner 2 µM)
Method in brief: as §1

Omipalisib + Bortezomib = compound: COc1ncc(-c2ccc3nccc(-c4ccnnc4)c3c2)cc1NS(=O)(=O)c1ccc(F)cc1F [Omipalisib] + CC(C)C[C@H](NC(=O)[C@H](Cc1ccccc1)NC(=O)c1cnccn1)B(O)O [Bortezomib] (partner 0.002 µM)
Method in brief: as §1

Cell Line | relative viability (Omipalisib + Phenformin; first compound 0.0003 µM) | relative viability (Omipalisib + Phenformin; first compound 0.003 µM) | relative viability (Omipalisib + Phenformin; first compound 0.03 µM) | relative viability (Omipalisib + Lapatinib; first compound 0.0003 µM) | relative viability (Omipalisib + Lapatinib; first compound 0.003 µM) | relative viability (Omipalisib + Lapatinib; first compound 0.03 µM) | relative viability (Omipalisib + Bortezomib; first compound 0.0003 µM) | relative viability (Omipalisib + Bortezomib; first compound 0.003 µM) | relative viability (Omipalisib + Bortezomib; first compound 0.03 µM)
EMC-BAC-2 | 0.476 | 0.368 | 0.334 | 0.726 | 0.611 | 0.608 | 0.968 | 0.862 | 0.747
201T | 0.47 | 0.421 | 0.338 | 1.02 | 0.935 | 0.936 | 1.13 | 1.11 | 0.777
RERF-LC-KJ | 0.416 | 0.371 | 0.28 | 0.773 | 0.572 | 0.632 | 1.1 | 0.795 | 0.664
NCI-H2228 | 0.258 | 0.142 | 0.122 | 0.993 | 0.697 | 0.291 | 0.905 | 0.577 | 0.404
NCI-H2405 | 0.401 | 0.285 | 0.184 | 0.949 | 0.6 | 0.303 | 0.895 | 0.909 | 0.578
SK-LU-1 | 0.47 | 0.299 | 0.273 | 0.89 | 0.724 | 0.493 | 1.1 | 0.724 | 0.511
CAL-12T | 0.543 | 0.573 | 0.361 | 0.787 | 0.496 | 0.475 | 1.15 | 1.06 | 0.484
NCI-H1975 | 0.412 | 0.292 | 0.162 | 0.801 | 0.613 | 0.22 | 0.33 | 0.27 | 0.179
SW 900 | 0.513 | 0.321 | 0.424 |  |  |  |  |  | 
NCI-H1755 | 0.625 | 0.522 | 0.457 | 1.04 | 0.924 | 0.783 | 0.924 | 0.886 | 0.708
HCC-44 | 0.202 | 0.141 | 0.102 | 1.09 | 0.96 | 0.432 | 0.874 | 0.694 | 0.513
NCI-H596 | 0.692 | 0.445 | 0.387 | 0.972 | 0.833 | 0.421 | 1.04 | 0.691 | 0.386
A-427 | 0.382 | 0.224 | 0.337 | 1.08 | 0.897 | 1.05 | 0.969 | 0.903 | 0.913
HOP-62 | 0.659 | 0.718 | 0.639 | 0.946 | 0.901 | 0.702 | 0.803 | 0.617 | 0.625
NCI-H2342 | 0.56 | 0.482 | 0.424 |  |  |  |  |  | 
NCI-H647 | 0.402 | 0.267 | 0.185 | 0.932 | 0.782 | 0.272 | 1.05 | 0.739 | 0.462
NCI-H2170 | 0.459 | 0.432 | 0.375 | 0.221 | 0.257 | 0.257 |  |  | 
LCLC-97TM1 | 0.38 | 0.338 | 0.159 | 0.976 | 0.323 | 0.223 | 0.589 | 0.477 | 0.146

Cell Line | relative viability (Omipalisib + Phenformin; first compound 0.0003 µM) | relative viability (Omipalisib + Phenformin; first compound 0.003 µM) | relative viability (Omipalisib + Phenformin; first compound 0.03 µM) | relative viability (Omipalisib + Lapatinib; first compound 0.0003 µM) | relative viability (Omipalisib + Lapatinib; first compound 0.003 µM) | relative viability (Omipalisib + Lapatinib; first compound 0.03 µM) | relative viability (Omipalisib + Bortezomib; first compound 0.0003 µM) | relative viability (Omipalisib + Bortezomib; first compound 0.003 µM) | relative viability (Omipalisib + Bortezomib; first compound 0.03 µM)
NCI-H661 | 0.264 | 0.264 | 0.224 | 0.366 | 0.294 | 0.196 | 0.69 | 0.595 | 0.314
NCI-H1734 | 0.341 | 0.265 | 0.183 | 0.943 | 0.699 | 0.551 | 0.937 | 0.544 | 0.276
H3255 | 0.365 | 0.39 | 0.269 | 0.219 | 0.193 | 0.203 | 0.803 | 0.588 | 0.571
HCC-15 | 0.427 | 0.372 | 0.306 | 0.81 | 0.779 | 0.795 | 0.988 | 0.848 | 0.813
NCI-H2126 | 0.489 | 0.425 | 0.292 | 0.759 | 0.46 | 0.374 | 1.06 | 0.895 | 0.734
NCI-H1915 | 0.368 | 0.389 | 0.366 | 0.957 | 0.945 | 1 | 1.02 | 0.978 | 0.97
NCI-H441 | 0.703 | 0.659 | 0.318 |  |  |  | 0.418 | 0.362 | 0.259
NCI-H1437 | 0.334 | 0.249 | 0.333 | 0.795 | 0.55 | 0.308 | 0.463 | 0.465 | 0.227
LC-2-ad | 0.438 | 0.368 | 0.258 | 0.933 | 0.784 | 0.745 | 1.11 | 0.978 | 0.888
UMC-11 | 0.338 | 0.329 | 0.316 | 0.836 | 0.531 | 0.738 | 0.678 | 0.556 | 0.643
NCI-H1650 | 0.371 | 0.257 | 0.168 | 0.771 | 0.771 | 0.576 | 0.197 | 0.184 | 0.2
NCI-H1666 | 0.547 | 0.559 | 0.487 | 0.502 | 0.298 | 0.24 | 0.749 | 0.473 | 0.333
NCI-H1993 | 0.558 | 0.552 | 0.586 | 0.812 | 0.809 | 0.588 | 0.894 | 0.699 | 0.542
NCI-H727 | 0.817 | 0.447 | 0.509 | 0.723 | 0.776 | 0.674 | 0.841 | 0.591 | 0.511
NCI-H1944 | 0.183 | 0.148 | 0.126 | 0.785 | 0.493 | 0.385 |  |  | 
HCC-366 | 0.625 | 0.263 | 0.181 | 0.898 | 0.496 | 0.186 | 0.918 | 0.707 | 0.168
NCI-H2009 | 0.511 | 0.487 | 0.316 | 0.997 | 0.943 | 0.581 | 0.979 | 0.986 | 0.584
NCI-H460 | 0.461 | 0.24 | 0.0524 | 0.594 | 0.845 | 0.151 | 1.07 | 0.824 | 0.109
